Source: PubChem BioAssay (NCI)
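How tested: cells in 96-well plates exposed to compound for 48 hours at five concentrations. GI50 is the concentration that inhibits growth by half. TGI marks complete inhibition of growth.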

How the values were obtained:
Experiment in all cases: growth of human tumour cells (NCI), 48 h
A498 renal = system: A498 renal
IGROV1 ovarian = system: IGROV1 ovarian
A549 NSCLC = system: A549 NSCLC
RPMI-8226 leukemia = system: RPMI-8226 leukemia
TK-10 renal = system: TK-10 renal
MDA-MB-231 breast = system: MDA-MB-231 breast
MDA-MB-435 = system: MDA-MB-435
RXF 393 renal = system: RXF 393 renal
HT29 colon = system: HT29 colon
LOX IMVI melanoma = system: LOX IMVI melanoma

O=C(Nc1ccc(Cc2ccccc2)cc1)Nc1nn(C(=O)Nc2ccc(Cc3ccccc3)cc2)c2ccccc12
GI50 (A498 renal): 82.4 µM | TGI (A498 renal): > 100 µM | GI50 (IGROV1 ovarian): > 100 µM | TGI (IGROV1 ovarian): > 100 µM | GI50 (A549 NSCLC): > 100 µM | TGI (A549 NSCLC): > 100 µM | GI50 (RPMI-8226 leukemia): > 100 µM | TGI (RPMI-8226 leukemia): > 100 µM | GI50 (TK-10 renal): > 100 µM | TGI (TK-10 renal): > 100 µM | GI50 (MDA-MB-231 breast): 47.1 µM | TGI (MDA-MB-231 breast): > 100 µM | GI50 (MDA-MB-435): > 100 µM | TGI (MDA-MB-435): > 100 µM | GI50 (RXF 393 renal): 30.4 µM | TGI (RXF 393 renal): > 100 µM | GI50 (HT29 colon): > 100 µM | TGI (HT29 colon): > 100 µM | GI50 (LOX IMVI melanoma): 71 µM | TGI (LOX IMVI melanoma): > 100 µM

CCCCOC(=O)c1ccc(N)cc1
GI50 (A498 renal): 33.6 µM | TGI (A498 renal): > 100 µM | GI50 (IGROV1 ovarian): > 100 µM | TGI (IGROV1 ovarian): > 100 µM | GI50 (A549 NSCLC): 32.3 µM | TGI (A549 NSCLC): > 100 µM | GI50 (RPMI-8226 leukemia): 67.2 µM | TGI (RPMI-8226 leukemia): > 100 µM | GI50 (TK-10 renal): 92 µM | TGI (TK-10 renal): > 100 µM | GI50 (MDA-MB-231 breast): > 100 µM | TGI (MDA-MB-231 breast): > 100 µM | GI50 (MDA-MB-435): 34.9 µM | TGI (MDA-MB-435): > 100 µM | GI50 (RXF 393 renal): > 100 µM | TGI (RXF 393 renal): > 100 µM | GI50 (HT29 colon): > 100 µM | TGI (HT29 colon): > 100 µM | GI50 (LOX IMVI melanoma): 30.8 µM | TGI (LOX IMVI melanoma): > 100 µM

O=c1[nH]c2ccccc2c2nc3ccccc3n12
TGI (A498 renal): > 100 µM | TGI (IGROV1 ovarian): > 100 µM | TGI (A549 NSCLC): > 100 µM | TGI (RPMI-8226 leukemia): > 100 µM | TGI (TK-10 renal): > 100 µM | TGI (MDA-MB-231 breast): > 100 µM | TGI (MDA-MB-435): > 100 µM | TGI (RXF 393 renal): > 100 µM | TGI (HT29 colon): > 100 µM | TGI (LOX IMVI melanoma): > 100 µM

O=C(O)[C@H](Cc1c[nH]c2ccccc12)N1C(=O)c2ccccc2C1=O
GI50 (A498 renal): 87.3 µM | TGI (A498 renal): > 100 µM | GI50 (IGROV1 ovarian): > 100 µM | TGI (IGROV1 ovarian): > 100 µM | TGI (A549 NSCLC): > 100 µM | TGI (RPMI-8226 leukemia): > 100 µM | TGI (TK-10 renal): > 100 µM | TGI (MDA-MB-231 breast): > 100 µM | TGI (MDA-MB-435): > 100 µM | TGI (RXF 393 renal): > 100 µM | TGI (HT29 colon): > 100 µM | TGI (LOX IMVI melanoma): > 100 µM

O=C1/C(=C/c2ccccc2)CN(C(=O)C(Cl)Cl)C/C1=C\c1ccccc1
GI50 (A498 renal): 1.48 µM | TGI (A498 renal): 3 µM | GI50 (IGROV1 ovarian): 0.708 µM | TGI (IGROV1 ovarian): 2.2 µM | GI50 (A549 NSCLC): 1.7 µM | TGI (A549 NSCLC): 3.92 µM | GI50 (RPMI-8226 leukemia): 0.0474 µM | TGI (RPMI-8226 leukemia): 0.278 µM | GI50 (TK-10 renal): 1.79 µM | TGI (TK-10 renal): 3.22 µM | GI50 (MDA-MB-231 breast): 0.807 µM | TGI (MDA-MB-231 breast): 2.46 µM | GI50 (MDA-MB-435): 0.312 µM | TGI (MDA-MB-435): 1.03 µM | GI50 (RXF 393 renal): 0.914 µM | TGI (RXF 393 renal): 2.33 µM | GI50 (HT29 colon): 0.295 µM | TGI (HT29 colon): 1.06 µM | GI50 (LOX IMVI melanoma): 0.139 µM | TGI (LOX IMVI melanoma): 0.353 µM

O=C1C(Cl)=C(Nc2ccc(Nc3ccccc3)c(NC3=C(Cl)C(=O)c4ccccc4C3=O)c2)C(=O)c2ccccc21
GI50 (A498 renal): 0.875 µM | TGI (A498 renal): 14.4 µM | GI50 (IGROV1 ovarian): 15.9 µM | TGI (IGROV1 ovarian): 69.1 µM | GI50 (A549 NSCLC): 8.25 µM | TGI (A549 NSCLC): > 100 µM | GI50 (RPMI-8226 leukemia): 3.33 µM | TGI (RPMI-8226 leukemia): > 100 µM | GI50 (TK-10 renal): 2.62 µM | TGI (TK-10 renal): 4.5 µM | GI50 (MDA-MB-231 breast): 1.27 µM | TGI (MDA-MB-231 breast): 6.02 µM | GI50 (MDA-MB-435): 25 µM | TGI (MDA-MB-435): > 100 µM | GI50 (RXF 393 renal): 3.09 µM | TGI (RXF 393 renal): 14.2 µM | GI50 (HT29 colon): 16.1 µM | TGI (HT29 colon): > 100 µM | GI50 (LOX IMVI melanoma): 4.12 µM | TGI (LOX IMVI melanoma): > 100 µM
